According to PubChem BioAssay (NCI):
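Following 48 hours of exposure in 96-well plates, responses at five concentrations were used to interpolate endpoints linearly. TGI: total growth inhibition.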

Assays:
Test in all cases: NCI anticancer screen, dose series, 48 h
IGROV1 ovarian = test system: IGROV1 ovarian
MDA-MB-435 = test system: MDA-MB-435
HCT-15 colon = test system: HCT-15 colon
SK-OV-3 ovarian = test system: SK-OV-3 ovarian
A498 renal = test system: A498 renal
T-47D breast = test system: T-47D breast
OVCAR-8 ovarian = test system: OVCAR-8 ovarian
SF-268 CNS = test system: SF-268 CNS
K-562 leukemia = test system: K-562 leukemia
SR leukemia = test system: SR leukemia
OVCAR-5 ovarian = test system: OVCAR-5 ovarian
NCI/ADR-RES ovarian = test system: NCI/ADR-RES ovarian
SN12C renal = test system: SN12C renal
HOP-62 NSCLC = test system: HOP-62 NSCLC
LOX IMVI melanoma = test system: LOX IMVI melanoma
HS 578T breast = test system: HS 578T breast
HL-60(TB) leukemia = test system: HL-60(TB) leukemia
CAKI-1 renal = test system: CAKI-1 renal
NCI-H226 lung = test system: NCI-H226 lung
SNB-75 CNS = test system: SNB-75 CNS
MOLT-4 leukemia = test system: MOLT-4 leukemia
HCC-2998 colon = test system: HCC-2998 colon
DU-145 prostate = test system: DU-145 prostate
OVCAR-3 ovarian = test system: OVCAR-3 ovarian
U251 CNS = test system: U251 CNS
SK-MEL-5 melanoma = test system: SK-MEL-5 melanoma
MCF7 breast = test system: MCF7 breast
PC-3 prostate = test system: PC-3 prostate
COLO 205 colon = test system: COLO 205 colon
MDA-N = test system: MDA-N
SK-MEL-28 melanoma = test system: SK-MEL-28 melanoma
MDA-MB-231 breast = test system: MDA-MB-231 breast
SW-620 colon = test system: SW-620 colon
HT29 colon = test system: HT29 colon
A549 NSCLC = test system: A549 NSCLC
SF-539 CNS = test system: SF-539 CNS
HOP-92 NSCLC = test system: HOP-92 NSCLC
MALME-3M melanoma = test system: MALME-3M melanoma
CCRF-CEM leukemia = test system: CCRF-CEM leukemia
RXF 393 renal = test system: RXF 393 renal
EKVX NSCLC = test system: EKVX NSCLC
M14 melanoma = test system: M14 melanoma
SF-295 CNS = test system: SF-295 CNS
HCT-116 colon = test system: HCT-116 colon
OVCAR-4 ovarian = test system: OVCAR-4 ovarian
SK-MEL-2 melanoma = test system: SK-MEL-2 melanoma
UACC-62 melanoma = test system: UACC-62 melanoma
786-0 renal = test system: 786-0 renal
TK-10 renal = test system: TK-10 renal
SNB-19 CNS = test system: SNB-19 CNS
NCI-H23 lung = test system: NCI-H23 lung
ACHN renal = test system: ACHN renal
NCI-H522 lung = test system: NCI-H522 lung
BT-549 breast = test system: BT-549 breast
UO-31 renal = test system: UO-31 renal
UACC-257 melanoma = test system: UACC-257 melanoma
KM12 colon = test system: KM12 colon
NCI-H460 lung = test system: NCI-H460 lung
RPMI-8226 leukemia = test system: RPMI-8226 leukemia

## CCSc1ncnc2c(C3OC(CO)C(O)C3O)nsc12 (centres undefined)
IGROV1 ovarian
  TGI: > 100 µM
MDA-MB-435
  TGI: > 100 µM
HCT-15 colon
  TGI: > 100 µM
SK-OV-3 ovarian
  TGI: > 100 µM
A498 renal
  TGI: > 100 µM
T-47D breast
  TGI: > 100 µM
OVCAR-8 ovarian
  TGI: > 100 µM
SF-268 CNS
  TGI: > 100 µM
K-562 leukemia
  TGI: > 100 µM
SR leukemia
  TGI: > 100 µM
OVCAR-5 ovarian
  TGI: > 100 µM
NCI/ADR-RES ovarian
  TGI: > 100 µM
SN12C renal
  TGI: > 100 µM
HOP-62 NSCLC
  TGI: > 100 µM
LOX IMVI melanoma
  TGI: > 100 µM
HS 578T breast
  TGI: > 100 µM
HL-60(TB) leukemia
  TGI: > 100 µM
CAKI-1 renal
  TGI: > 100 µM
NCI-H226 lung
  TGI: > 100 µM
SNB-75 CNS
  TGI: > 100 µM
MOLT-4 leukemia
  TGI: > 100 µM
HCC-2998 colon
  TGI: > 100 µM
DU-145 prostate
  TGI: > 100 µM
OVCAR-3 ovarian
  TGI: > 100 µM
U251 CNS
  TGI: > 100 µM
SK-MEL-5 melanoma
  TGI: > 100 µM
MCF7 breast
  TGI: > 100 µM
PC-3 prostate
  TGI: > 100 µM
COLO 205 colon
  TGI: > 100 µM
MDA-N
  TGI: > 100 µM
SK-MEL-28 melanoma
  TGI: > 100 µM
MDA-MB-231 breast
  TGI: > 100 µM
SW-620 colon
  TGI: > 100 µM
HT29 colon
  TGI: > 100 µM
A549 NSCLC
  TGI: > 100 µM
SF-539 CNS
  TGI: > 100 µM
HOP-92 NSCLC
  TGI: > 100 µM
MALME-3M melanoma
  TGI: > 100 µM
CCRF-CEM leukemia
  TGI: > 100 µM
RXF 393 renal
  TGI: > 100 µM
EKVX NSCLC
  TGI: > 100 µM
M14 melanoma
  TGI: > 100 µM
SF-295 CNS
  TGI: > 100 µM
HCT-116 colon
  TGI: > 100 µM
OVCAR-4 ovarian
  TGI: > 100 µM
SK-MEL-2 melanoma
  TGI: > 100 µM

## Cc1cc(O)c(C(C)C)cc1NC(=O)Nc1cccc2ccccc12
IGROV1 ovarian
  TGI: 37.7 µM
MDA-MB-435
  TGI: 31.1 µM
HCT-15 colon
  TGI: 69.1 µM
A498 renal
  TGI: 26.5 µM
T-47D breast
  TGI: > 100 µM
OVCAR-8 ovarian
  TGI: > 100 µM
SF-268 CNS
  TGI: 40.9 µM
K-562 leukemia
  TGI: > 100 µM
SR leukemia
  TGI: > 100 µM
OVCAR-5 ovarian
  TGI: 56.4 µM
NCI/ADR-RES ovarian
  TGI: 76.2 µM
SN12C renal
  TGI: 40.5 µM
HOP-62 NSCLC
  TGI: 30.9 µM
LOX IMVI melanoma
  TGI: 49.9 µM
HS 578T breast
  TGI: 62.6 µM
HL-60(TB) leukemia
  TGI: > 100 µM
CAKI-1 renal
  TGI: 30.7 µM
NCI-H226 lung
  TGI: 46.7 µM
UACC-62 melanoma
  TGI: 25.9 µM
MOLT-4 leukemia
  TGI: > 100 µM
786-0 renal
  TGI: 34.6 µM
HCC-2998 colon
  TGI: 41 µM
TK-10 renal
  TGI: 32.5 µM
SNB-19 CNS
  TGI: 30.2 µM
DU-145 prostate
  TGI: 28.3 µM
OVCAR-3 ovarian
  TGI: 40.2 µM
NCI-H23 lung
  TGI: 46.3 µM
U251 CNS
  TGI: 31 µM
SK-MEL-5 melanoma
  TGI: 27.4 µM
PC-3 prostate
  TGI: 29.2 µM
MDA-N
  TGI: 27.6 µM
ACHN renal
  TGI: 27.8 µM
SK-MEL-28 melanoma
  TGI: 55.8 µM
NCI-H522 lung
  TGI: 54.1 µM
MDA-MB-231 breast
  TGI: 31.7 µM
SW-620 colon
  TGI: > 100 µM
BT-549 breast
  TGI: 36.1 µM
HT29 colon
  TGI: 36.1 µM
A549 NSCLC
  TGI: 45.4 µM
HOP-92 NSCLC
  TGI: 40.8 µM
UO-31 renal
  TGI: 42.9 µM
MALME-3M melanoma
  TGI: 40.3 µM
UACC-257 melanoma
  TGI: 33.4 µM
KM12 colon
  TGI: 38.8 µM
RXF 393 renal
  TGI: 29.4 µM
EKVX NSCLC
  TGI: 62.7 µM
M14 melanoma
  TGI: 40 µM
NCI-H460 lung
  TGI: 41.4 µM
SF-295 CNS
  TGI: 28.2 µM
HCT-116 colon
  TGI: 36.6 µM
OVCAR-4 ovarian
  TGI: 24.4 µM
SK-MEL-2 melanoma
  TGI: 30.4 µM

## Cc1ccc(S(=O)(=O)NC(=O)NC(Cc2c[nH]c3ccccc23)C(=O)O)cc1 (centres undefined)
IGROV1 ovarian
  TGI: > 100 µM
HCT-15 colon
  TGI: > 100 µM
SK-OV-3 ovarian
  TGI: > 100 µM
T-47D breast
  TGI: > 100 µM
OVCAR-8 ovarian
  TGI: > 100 µM
SF-268 CNS
  TGI: > 100 µM
K-562 leukemia
  TGI: > 100 µM
SR leukemia
  TGI: > 100 µM
OVCAR-5 ovarian
  TGI: > 100 µM
NCI/ADR-RES ovarian
  TGI: > 100 µM
SN12C renal
  TGI: > 100 µM
HOP-62 NSCLC
  TGI: > 100 µM
LOX IMVI melanoma
  TGI: > 100 µM
HS 578T breast
  TGI: > 100 µM
HL-60(TB) leukemia
  TGI: > 100 µM
SNB-75 CNS
  TGI: > 100 µM
MOLT-4 leukemia
  TGI: > 100 µM
786-0 renal
  TGI: > 100 µM
TK-10 renal
  TGI: > 100 µM
SNB-19 CNS
  TGI: > 100 µM
DU-145 prostate
  TGI: > 100 µM
NCI-H23 lung
  TGI: > 100 µM
U251 CNS
  TGI: > 100 µM
SK-MEL-5 melanoma
  TGI: > 100 µM
PC-3 prostate
  TGI: > 100 µM
COLO 205 colon
  TGI: > 100 µM
MDA-N
  TGI: > 100 µM
SK-MEL-28 melanoma
  TGI: > 100 µM
NCI-H522 lung
  TGI: > 100 µM
MDA-MB-231 breast
  TGI: > 100 µM
RPMI-8226 leukemia
  TGI: > 100 µM
SW-620 colon
  TGI: > 100 µM
BT-549 breast
  TGI: > 100 µM
HT29 colon
  TGI: > 100 µM
A549 NSCLC
  TGI: > 100 µM
SF-539 CNS
  TGI: > 100 µM
HOP-92 NSCLC
  TGI: > 100 µM
UO-31 renal
  TGI: > 100 µM
MALME-3M melanoma
  TGI: > 100 µM
CCRF-CEM leukemia
  TGI: > 100 µM
UACC-257 melanoma
  TGI: > 100 µM
KM12 colon
  TGI: > 100 µM
RXF 393 renal
  TGI: > 100 µM
M14 melanoma
  TGI: > 100 µM
NCI-H460 lung
  TGI: > 100 µM
SF-295 CNS
  TGI: > 100 µM
HCT-116 colon
  TGI: > 100 µM
OVCAR-4 ovarian
  TGI: > 100 µM
SK-MEL-2 melanoma
  TGI: > 100 µM

## CCOC(=O)c1ccc(-c2cc(C)[nH]n2)[nH]1
MDA-MB-435
  TGI: > 100 µM
HCT-15 colon
  TGI: > 100 µM
SK-OV-3 ovarian
  TGI: > 100 µM
A498 renal
  TGI: > 100 µM
T-47D breast
  TGI: > 100 µM
OVCAR-8 ovarian
  TGI: > 100 µM
SF-268 CNS
  TGI: > 100 µM
OVCAR-5 ovarian
  TGI: > 100 µM
NCI/ADR-RES ovarian
  TGI: > 100 µM
SN12C renal
  TGI: > 100 µM
HOP-62 NSCLC
  TGI: > 100 µM
LOX IMVI melanoma
  TGI: > 100 µM
HL-60(TB) leukemia
  TGI: > 100 µM
CAKI-1 renal
  TGI: > 100 µM
NCI-H226 lung
  TGI: > 100 µM
UACC-62 melanoma
  TGI: > 100 µM
SNB-75 CNS
  TGI: > 100 µM
786-0 renal
  TGI: > 100 µM
TK-10 renal
  TGI: > 100 µM
SNB-19 CNS
  TGI: > 100 µM
DU-145 prostate
  TGI: > 100 µM
OVCAR-3 ovarian
  TGI: > 100 µM
NCI-H23 lung
  TGI: > 100 µM
U251 CNS
  TGI: > 100 µM
SK-MEL-5 melanoma
  TGI: > 100 µM
PC-3 prostate
  TGI: > 100 µM
COLO 205 colon
  TGI: > 100 µM
MDA-N
  TGI: > 100 µM
ACHN renal
  TGI: > 100 µM
SK-MEL-28 melanoma
  TGI: > 100 µM
NCI-H522 lung
  TGI: > 100 µM
MDA-MB-231 breast
  TGI: > 100 µM
RPMI-8226 leukemia
  TGI: > 100 µM
SW-620 colon
  TGI: > 100 µM
BT-549 breast
  TGI: > 100 µM
HT29 colon
  TGI: > 100 µM
A549 NSCLC
  TGI: > 100 µM
SF-539 CNS
  TGI: > 100 µM
HOP-92 NSCLC
  TGI: > 100 µM
UO-31 renal
  TGI: > 100 µM
MALME-3M melanoma
  TGI: > 100 µM
CCRF-CEM leukemia
  TGI: > 100 µM
UACC-257 melanoma
  TGI: > 100 µM
KM12 colon
  TGI: > 100 µM
RXF 393 renal
  TGI: > 100 µM
EKVX NSCLC
  TGI: > 100 µM
M14 melanoma
  TGI: > 100 µM
NCI-H460 lung
  TGI: > 100 µM
SF-295 CNS
  TGI: > 100 µM
HCT-116 colon
  TGI: > 100 µM
OVCAR-4 ovarian
  TGI: > 100 µM
SK-MEL-2 melanoma
  TGI: > 100 µM
